Measured values taken from US11129835B2, “Methods and compositions for the inhibition of PIN1” (Beth Israel Deaconess Medical Center, Inc., priority 2012, dated 2021).

Columns and labels:
[1] = target: T1, Pin1 (Homo sapiens, UniProt Q13526); experiment: Pin1 fluorescence polarization competition assay with Tamra-probe (secondary); details: for Emax: read-out: Tamra Secondary Efficacy
Experimental: An assay was developed for the identification of inhibitors of Pin1. […] Candidate compounds were screened in a concentration-titration series (e.g., 57 μM to 0.7 nM).
(§1) Pin1 (0.6 μM) was dispensed into black, solid 1536-well plates (32 rows by 48 columns) at 2 μL/well in Pin1 buffer (10 mM HEPES (pH 7.5), 10 mM NaCl, 0.01% Tween20, 1 mM DTT, and 1% glycerol). Next, 23 nL of compound or DMSO was delivered to each well using a pin tool (tip wash sequence: DMSO, IPA, MeOH, 3 s vacuum dry). Two μL of Pin1-1b-HiFluor488 peptide in buffer (10 mM HEPES (pH 7.5), 10 mM NaCl, 0.01% Tween20, 1 mM DTT, and 1% glycerol, 0.02 μM Pin1-1b-HiFluor488) or DMSO was then dispensed to each well using a pin tool (tip wash sequence: DMSO, IPA, MeOH, 3 s vacuum dry), and plates were incubated at room temperature for 10 min (Table 2). Each plate included controls with no candidate inhibitory compound (32 wells), with unlabeled Pin1-1c titration (3.5 mM to 0.020 mM in a 1:2 dilution series including 2 replicates per concentration; 32 wells), and without Pin1 (64 wells).
(§2) The fluorescence polarization signal of each well was measured on a ViewLux® plate reader using a 480/20 nm excitation filter and 540/25 nm S and P emission filters with a 20 second exposure with 2× binning (Table 2). Percent inhibitory activity was determined from corrected fluorescence polarization values.
(§3) Concentration-response curves were fitted to the signals arising from the resulting fluorescence polarization. The concentration-effect curves were then classified based on curve quality (r^2), response magnitude, and degree of measured activity. Compounds were subsequently categorized based on their curve class.
A further secondary assessment was accomplished by replacing the HiFluor-488-labeled probe with Tamra-probe, a red-shifted fluorophore.

[2] = target: T1, Pin1; experiment: confirmatory Pin1 fluorescence polarization competition assay (Alexa488 reconfirmed); details: for Emax: read-out: Alexa488 Reconfirmed Efficacy;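 for all read-outs here: Pin1 competition with a HiFluor488-labelled peptide probe, read as fluorescence polarization after 10 min at room temperature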
Experimental: (§4) The goal of this assay was to identify small-molecule inhibitors of Pin1 using a fluorescence polarization competition assay (FIG. 1). […] Candidate compounds were screened in a concentration-titration series (e.g., 57 μM to 0.7 nM).
as §1, §2, §3

[3] = target: T1, Pin1; experiment: Pin1 fluorescence polarization competition assay, primary qHTS (HiFluor-488 / Alexa488 probe);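 note: Pin1 protein with fluorescent peptide probe, compound displacement read by fluorescence polarization, percent inhibition derived from corrected polarization values, concentration-response curves in 1536-well format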
Experimental: as §4, §1, §2, §3
Curves showing change polarized fluorescence may be categorized into 5 classes. Class 1 includes complete curves, having 2 asymptotes and an r^2 value of ≥0.9, with an efficacy of either >80% (class 1.1) or ≤80% (class 1.2). Class 1 curves may also be classified as noisy curves when efficacy is >80% and r^2<0.9 (class 1.3) or when efficacy is ≤80% and r^2<0.9 (class 1.4). Class 2 includes incomplete curves having 1 asymptote and an r^2 value of either >0.9 (subclass a) or <0.9 (subclass b), with an efficacy of either >80% (class 2.1) or ≤80% (class 2.2). Class 2 curves may also be classified as noisy curves when efficacy is >80% and r^2<0.9 (class 2.3) or when efficacy is ≤80% and r^2<0.9 (class 2.4). Class 3 includes single point activity curves having 1 asymptote and an efficacy >3 SD from the mean activity of the sample field at the highest tested concentration. […] A fifth class captures any curves not otherwise classified (FIG. 4).

[4] = Alexa488 Primary Potency, primary qHTS
[5] = Average HTS Potency, average over Alexa488 primary, Alexa488 reconfirmed and Tamra secondary assays
[6] = read-out: Alexa488 Primary Efficacy

T1 sequence (Q13526 whole entry): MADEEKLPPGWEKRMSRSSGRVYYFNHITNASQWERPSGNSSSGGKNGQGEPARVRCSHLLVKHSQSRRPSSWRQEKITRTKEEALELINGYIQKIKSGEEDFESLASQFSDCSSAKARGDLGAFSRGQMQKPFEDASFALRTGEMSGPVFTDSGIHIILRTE

Compound | IC50 [1] [µM] | Tamra Secondary Curve Class ([1]; Tamra-probe) | Emax [1] [%] | IC50 [2] [µM] | Alexa488 Reconfirmed Curve Class ([2]; confirmatory retest) | Emax [2] [%] | IC50 [3, 4] [µM] | IC50 [3, 5] [µM] | Alexa488 Primary Curve Class ([3]; primary qHTS) | Emax [3, 6] [%] | Emax ([3]; read-out: Average HTS Efficacy) [%] | Tamra Secondary Efficacy ([1]; Tamra-probe) [% Inh.] | Alexa488 Reconfirmed Efficacy ([2]; confirmatory retest) [% Inh.] | Average HTS Efficacy ([3]; average over Alexa488 primary, Alexa488 reconfirmed and Tamra secondary assays) [% Inh.] | Alexa488 Primary Efficacy ([3]; primary qHTS) [% Inh.]
CC(C)COc1ccc(C(=O)N/C(=C\c2cccc([N+](=O)[O-])c2)C(=O)O)cc1 [Compound 37] | 12 | 2.2 (≤80% (class 2.2)) | 58 | 15 | 2.2 (≤80% (class 2.2)) | 63 | 85 | 37 | 1.2 (≤80% (class 1.2)) | 19 | 47 |  |  |  | 
O=C(NC(Cc1ccccc1)C(=O)O)/C(=C\c1ccco1)NC(=O)c1ccccc1 (stereo not drawn) [Compound 35] | 11 | 2.2 (≤80% (class 2.2)) | 75 | 9 |  | 112 | 38 | 19 |  | 26 | 71 |  |  |  | 
Cc1ccc(C)n1-c1cccc(C(=O)O)c1 [Compound 17] | 3 |  | 89 | 2 |  | 83 | 10 | 5 |  | 64 | 79 |  |  |  | 
O=S(=O)(O)c1ccc(O)c2cc(Nc3ccccc3)ccc12 [Compound 13] | 3 |  | 88 | 2 |  | 89 | 9 | 4 |  | 89 | 89 |  |  |  | 
COc1ccc(NC(=O)CN(C)C(=O)c2cc3c(s2)CCC3)cc1 [Compound 26] | 21 |  | 101 | 24 |  | 111 | 20 | 22 |  | 71 | 94 |  |  |  | 
CC(=O)c1ccc2c(c1)C1C=CCC1C(C(=O)O)N2 (stereo not drawn) [Compound 1] | 1.2 |  | 95 | 1.3 |  | 90 | 6 | 3 | 1.2 (≤80% (class 1.2)) | 66 | 84 |  |  |  | 
Cn1nc(-c2ccncc2)nc2c(=O)n(C)c(=O)nc1-2 [Compound 49] |  |  |  | 1 |  | 70 | 50 | 25 | 1.2 (≤80% (class 1.2)) | 27 | 48 |  |  |  | 
O=S(=O)(Nc1nc(-c2sccc2Cl)cs1)c1cc(Cl)ccc1Cl [Compound 24] | 12 |  | 100 | 14 | 1.2 (≤80% (class 1.2)) | 101 | 43 | 23 | 1.2 (≤80% (class 1.2)) | 76 | 92 |  |  |  | 
O=C1OC(/C(=C\Nc2cc(Cl)ccc2O)[N+](=O)[O-])c2ccccc21 (stereo not drawn) [Compound 12] | 1.1 |  | 92 | 1.2 |  | 93 | 15 | 6 | 1.2 (≤80% (class 1.2)) | 78 | 88 |  |  |  | 
O=C(O)c1cc2cccc([N+](=O)[O-])c2[nH]1 [Compound 22] | 12 | 2.2 (≤80% (class 2.2)) | 82 | 21 | 2.2 (≤80% (class 2.2)) | 93 |  | 17 |  |  | 88 |  |  |  | 
COc1ccc(NC(=O)CN(C)C(O)c2cc(-c3ccco3)nc3ccccc23)cc1 (stereo not drawn) [Compound 39] | 21 | 3.0 | 53 |  |  |  | 14 | 17 | 2.2 (≤80% (class 2.2)) | 28 | 41 |  |  |  | 
O=S(=O)(O)c1cc(O)c2cc(Nc3ccccc3)ccc2c1 [Compound 15] | 12 |  | 300 | 11 | 2.2 (≤80% (class 2.2)) | 71 | 10 | 11 | 2.2 (≤80% (class 2.2)) | 27 | 133 |  |  |  | 
O=C(O)CCCNC(=O)/C=C/c1ccco1 [Compound 19] | 5 | 2.2 (≤80% (class 2.2)) | 78 | 2 | 1.2 (≤80% (class 1.2)) | 73 | 38 | 15 | 1.2 (≤80% (class 1.2)) | 41 | 64 |  |  |  | 
O=C(O)C1Nc2ccc(Br)cc2C2C=CCC12 (stereo not drawn) [Compound 6] | 11 |  | 87 | 10 |  | 85 | 22 | 14 |  | 42 | 72 |  |  |  | 
CC(=O)Nc1cc(=O)c2[nH]o[nH]c=2c1=O [Compound 50] |  |  |  | 7 |  | 98 | 1 | 4 |  | 93 | 95 |  |  |  | 
Cc1ccc(C)n1-c1sccc1C(=O)O [Compound 18] | 2 |  | 95 | 2 |  | 91 | 68 | 24 |  | 44 | 77 |  |  |  | 
O=C(O)C1Nc2c(C(F)(F)F)ccc(Cl)c2C2C=CCC12 (stereo not drawn) [Compound 8] | 18 | 2.2 (≤80% (class 2.2)) | 52 |  | 2.2 (≤80% (class 2.2)) | 103 | 45 | 31 | 2.2 (≤80% (class 2.2)) | 67 | 74 |  |  |  | 
O=C(O)c1cccc2c1NC(C(=O)O)C1CC(Sc3ccccc3[N+](=O)[O-])C(Cl)C21 (stereo not drawn) [Compound 3] |  | 1.2 (≤80% (class 1.2)) |  |  | 1.2 (≤80% (class 1.2)) |  |  |  |  |  |  | 72 | 61 | 71 | 80
NS(=O)(=O)c1cc(C(=O)NC2CCSc3ccccc32)ccc1Cl (stereo not drawn) [Compound 11] | 4 |  | 91 | 3 |  | 93 | 3 | 3 | 1.2 (≤80% (class 1.2)) | 65 | 83 |  |  |  | 
CCOc1cc(Br)cc(C(c2c(C(=O)O)[nH]c3ccccc23)c2c(C(=O)O)[nH]c3ccccc23)c1O [Compound 45] | 38 | 3.0 | 71 |  |  |  | 22 | 30 |  | 72 | 71 |  |  |  | 
COc1cc(/C=C2\SC(=O)N(c3ccc(Cl)cc3)C2=O)cc([N+](=O)[O-])c1O [Compound 38] |  |  |  | 6 |  | 98 | 19 | 13 |  | 103 | 101 |  |  |  | 
COc1ccccc1Nc1ccc2c(O)cc(S(=O)(=O)O)cc2c1 [Compound 14] | 8 |  | 85 | 1 | 1.2 (≤80% (class 1.2)) | 59 | 21 | 10 | 1.2 (≤80% (class 1.2)) | 71 | 72 |  |  |  | 
CCCCCC(=O)Nc1cc(S(=O)(=O)O)cc2cc(S(=O)(=O)O)cc(O)c12 [Compound 16] | 2 |  | 84 | 2 |  | 93 | 76 | 27 |  | 54 | 77 |  |  |  | 
O=C(O)C1Nc2c(O)cccc2C2C=CCC12 (stereo not drawn) [Compound 4] | 11 | 2.2 (≤80% (class 2.2)) | 37 |  |  |  | 3 | 7 | 1.2 (≤80% (class 1.2)) | 23 | 30 |  |  |  | 
O=C(O)Cc1c[nH]c2cccc(O)c12 [Compound 23] | 8 | 2.2 (≤80% (class 2.2)) | 77 | 15 |  | 92 | 76 | 33 |  | 63 | 77 |  |  |  | 
CCn1nc(-c2ccccc2C)nc2c(=O)n(C)c(=O)nc1-2 [Compound 48] |  |  |  | 1 |  | 73 | 1 | 1 |  | 53 | 63 |  |  |  | 
Cc1ccc(NC(=O)CN(C)C(=O)c2cccc(-n3cccc3)c2)cc1 [Compound 25] | 30 | 3.0 | 73 |  |  |  | 38 | 34 | 2.2 (≤80% (class 2.2)) | 22 | 47 |  |  |  | 
O=C(O)c1[nH]c2ccccc2c1C(c1cc(Br)ccc1O)c1c(C(=O)O)[nH]c2ccccc12 [Compound 43] | 24 | 3.0 | 71 |  |  |  | 16 | 20 | 1.2 (≤80% (class 1.2)) | 63 | 67 |  |  |  | 
O=C(c1cccs1)c1no[n+]([O-])c1C(=O)c1cccs1 [Compound 28] |  |  |  | 0.08 |  | 99 | 1.69 | 0.89 |  | 89 | 94 |  |  |  | 
Cc1cccc(N(Cc2cc(=O)[nH]c3ccccc23)C(=O)CCl)c1 [Compound 10] |  |  |  | 4.8 |  | 82.9 | 22.4 | 13.6 | 2.2 (≤80% (class 2.2)) | 81.3 | 82.1 |  |  |  | 
